Experimental data from ChEMBL document CHEMBL4699602, “Stapled and Xenopus Glucagon-Like Peptide 1 (GLP-1)-Based Dual GLP-1/Gastrin Receptor Agonists with Improved Metabolic Benefits in Rodent Models of Obesity and Diabetes” (J Med Chem, 2020).
pEC50: −log10 of the molar value. Where a SMILES comes first, the peptide text is derived from it.

biological target: Glucagon-like peptide 1 receptor (Homo sapiens, UniProt P43220); experiment: Agonist activity at human GLP-1R expressed in HEK293 cells assessed as stimulation of cAMP accumulation incubated for 20 mins; format: functional, cell-based
Sequence (P43220 whole entry): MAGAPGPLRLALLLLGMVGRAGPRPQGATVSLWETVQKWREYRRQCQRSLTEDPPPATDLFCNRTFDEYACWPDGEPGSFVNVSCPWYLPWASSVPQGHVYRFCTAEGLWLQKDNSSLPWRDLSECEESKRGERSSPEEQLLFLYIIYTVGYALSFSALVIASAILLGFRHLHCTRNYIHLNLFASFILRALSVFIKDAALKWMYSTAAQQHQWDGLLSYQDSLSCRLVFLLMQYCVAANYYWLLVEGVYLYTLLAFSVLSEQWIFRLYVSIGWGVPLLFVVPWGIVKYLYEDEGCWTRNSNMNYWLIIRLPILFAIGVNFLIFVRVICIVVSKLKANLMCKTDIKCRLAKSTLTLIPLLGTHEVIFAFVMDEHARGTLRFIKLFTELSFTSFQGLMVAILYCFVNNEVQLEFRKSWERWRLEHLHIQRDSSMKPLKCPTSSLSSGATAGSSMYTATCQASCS

| SMILES | pEC50 |
| --- | --- |
| CC[C@H](C)[C@H](NC(=O)[C@H](CC(C)C)NC(=O)[C@H](Cc1c[nH]c2ccccc12)NC(=O)[C@H](CCC(=O)O)NC(=O)[C@@H](NC(=O)[C@H](Cc1ccccc1)NC(=O)[C@H](CCC(=O)O)NC(=O)[C@H](CCCCN)NC(=O)[C@H](C)NC(=O)[C@H](CS)NC(=O)[C@H](CCC(=O)O)NC(=O)[C@H](CCC(=O)O)NC(=O)[C@H](CCC(=O)O)NC(=O)[C@H](CC(C)C)NC(=O)[C@H](Cc1ccc(O)cc1)NC(=O)[C@H](CCC(=O)O)NC(=O)[C@H](CS)NC(=O)[C@@H](NC(=O)[C@H](CC(=O)O)NC(=O)[C@H](CC(N)=O)NC(=O)[C@@H](NC(=O)[C@H](Cc1ccc(O)cc1)NC(=O)[C@@H](NC(=O)CNC(=O)[C@H](CCC(=O)O)NC(=O)C(C)(C)NC(=O)[C@@H](N)Cc1c[nH]cn1)[C@@H](C)O)[C@@H](C)O)C(C)C)[C@@H](C)CC)C(=O)N[C@@H](CCCCN)C(=O)NCC(=O)N[C@@H](CCCCN)C(=O)N1CCC[C@H]1C(=O)N[C@@H](CO)C(=O)N[C@@H](CO)C(=O)NCC(=O)N[C@@H](C)C(=O)N1CCC[C@H]1C(=O)N1CCC[C@H]1C(=O)N1CCC[C@H]1C(=O)N[C@@H](CO)C(N)=O (HELM PEPTIDE1{H.[Aib].E.G.T.Y.T.N.D.V.C.E.Y.L.E.E.E.C.A.K.E.F.I.E.W.L.I.K.G.K.P.S.S.G.A.P.P.P.S.[am]}$$$$V2.0) | 9.82 |
| CC[C@H](C)[C@H](NC(=O)[C@H](CC(C)C)NC(=O)[C@H](Cc1c[nH]c2ccccc12)NC(=O)[C@H](CCC(=O)O)NC(=O)[C@@H](NC(=O)[C@H](Cc1ccccc1)NC(=O)[C@H](CCC(=O)O)NC(=O)[C@H](CCCCN)NC(=O)[C@H](C)NC(=O)[C@H](CS)NC(=O)[C@H](CCC(=O)O)NC(=O)[C@H](CCC(=O)O)NC(=O)[C@H](CCC(=O)O)NC(=O)[C@H](CC(C)C)NC(=O)[C@H](Cc1ccc(O)cc1)NC(=O)[C@H](CCC(=O)O)NC(=O)[C@H](CS)NC(=O)[C@@H](NC(=O)[C@H](CC(=O)O)NC(=O)[C@H](CC(N)=O)NC(=O)[C@@H](NC(=O)[C@H](Cc1ccc(O)cc1)NC(=O)[C@@H](NC(=O)CNC(=O)[C@H](CCC(=O)O)NC(=O)C(C)(C)NC(=O)[C@@H](N)Cc1c[nH]cn1)[C@@H](C)O)[C@@H](C)O)C(C)C)[C@@H](C)CC)C(=O)N[C@@H](CCCCN)C(=O)NCC(=O)N[C@@H](CCCCN)C(N)=O (HELM PEPTIDE1{H.[Aib].E.G.T.Y.T.N.D.V.C.E.Y.L.E.E.E.C.A.K.E.F.I.E.W.L.I.K.G.K.[am]}$$$$V2.0) | 9.49 |
| CC[C@H](C)[C@H](NC(=O)[C@H](CC(C)C)NC(=O)[C@H](Cc1c[nH]c2ccccc12)NC(=O)[C@H](CCC(=O)O)NC(=O)[C@@H](NC(=O)[C@H](Cc1ccccc1)NC(=O)[C@H](CCC(=O)O)NC(=O)[C@H](CCCCN)NC(=O)[C@H](CS)NC(=O)[C@H](C)NC(=O)[C@H](CCC(=O)O)NC(=O)[C@H](CCC(=O)O)NC(=O)[C@H](CCC(=O)O)NC(=O)[C@H](CC(C)C)NC(=O)[C@H](Cc1ccc(O)cc1)NC(=O)[C@H](CS)NC(=O)[C@@H](NC(=O)[C@@H](NC(=O)[C@H](CC(=O)O)NC(=O)[C@H](CC(N)=O)NC(=O)[C@@H](NC(=O)[C@H](Cc1ccc(O)cc1)NC(=O)[C@@H](NC(=O)CNC(=O)[C@H](CCC(=O)O)NC(=O)C(C)(C)NC(=O)[C@@H](N)Cc1c[nH]cn1)[C@@H](C)O)[C@@H](C)O)C(C)C)[C@@H](C)O)[C@@H](C)CC)C(=O)N[C@@H](CCCCN)C(=O)NCC(=O)N[C@@H](CCCCN)C(=O)N1CCC[C@H]1C(=O)N[C@@H](CO)C(=O)N[C@@H](CO)C(=O)NCC(=O)N[C@@H](C)C(=O)N1CCC[C@H]1C(=O)N1CCC[C@H]1C(=O)N1CCC[C@H]1C(=O)N[C@@H](CO)C(N)=O (HELM PEPTIDE1{H.[Aib].E.G.T.Y.T.N.D.V.T.C.Y.L.E.E.E.A.C.K.E.F.I.E.W.L.I.K.G.K.P.S.S.G.A.P.P.P.S.[am]}$$$$V2.0) | 9.92 |
| CC[C@H](C)[C@H](NC(=O)[C@H](CC(C)C)NC(=O)[C@H](Cc1c[nH]c2ccccc12)NC(=O)[C@H](CCC(=O)O)NC(=O)[C@@H](NC(=O)[C@H](Cc1ccccc1)NC(=O)[C@H](CCC(=O)O)NC(=O)[C@H](CCCCN)NC(=O)[C@H](CS)NC(=O)[C@H](C)NC(=O)[C@H](CCC(=O)O)NC(=O)[C@H](CCC(=O)O)NC(=O)[C@H](CCC(=O)O)NC(=O)[C@H](CC(C)C)NC(=O)[C@H](Cc1ccc(O)cc1)NC(=O)[C@H](CS)NC(=O)[C@@H](NC(=O)[C@@H](NC(=O)[C@H](CC(=O)O)NC(=O)[C@H](CC(N)=O)NC(=O)[C@@H](NC(=O)[C@H](Cc1ccc(O)cc1)NC(=O)[C@@H](NC(=O)CNC(=O)[C@H](CCC(=O)O)NC(=O)C(C)(C)NC(=O)[C@@H](N)Cc1c[nH]cn1)[C@@H](C)O)[C@@H](C)O)C(C)C)[C@@H](C)O)[C@@H](C)CC)C(=O)N[C@@H](CCCCN)C(=O)NCC(=O)N[C@@H](CCCCN)C(N)=O (HELM PEPTIDE1{H.[Aib].E.G.T.Y.T.N.D.V.T.C.Y.L.E.E.E.A.C.K.E.F.I.E.W.L.I.K.G.K.[am]}$$$$V2.0) | 9.59 |
| CC[C@H](C)[C@H](NC(=O)[C@H](CC(C)C)NC(=O)[C@H](Cc1c[nH]c2ccccc12)NC(=O)[C@H](CCC(=O)O)NC(=O)[C@@H](NC(=O)[C@H](Cc1ccccc1)NC(=O)[C@H](CCC(=O)O)NC(=O)[C@H](CS)NC(=O)[C@H](C)NC(=O)[C@H](C)NC(=O)[C@H](CCC(=O)O)NC(=O)[C@H](CCC(=O)O)NC(=O)[C@H](CCC(=O)O)NC(=O)[C@H](CC(C)C)NC(=O)[C@H](CS)NC(=O)[C@H](CCC(=O)O)NC(=O)[C@@H](NC(=O)[C@@H](NC(=O)[C@H](CC(=O)O)NC(=O)[C@H](CC(N)=O)NC(=O)[C@@H](NC(=O)[C@H](Cc1ccc(O)cc1)NC(=O)[C@@H](NC(=O)CNC(=O)[C@H](CCC(=O)O)NC(=O)C(C)(C)NC(=O)[C@@H](N)Cc1c[nH]cn1)[C@@H](C)O)[C@@H](C)O)C(C)C)[C@@H](C)O)[C@@H](C)CC)C(=O)N[C@@H](CCCCN)C(=O)NCC(=O)N[C@@H](CCCCN)C(=O)N1CCC[C@H]1C(=O)N[C@@H](CO)C(=O)N[C@@H](CO)C(=O)NCC(=O)N[C@@H](C)C(=O)N1CCC[C@H]1C(=O)N1CCC[C@H]1C(=O)N1CCC[C@H]1C(=O)N[C@@H](CO)C(N)=O (HELM PEPTIDE1{H.[Aib].E.G.T.Y.T.N.D.V.T.E.C.L.E.E.E.A.A.C.E.F.I.E.W.L.I.K.G.K.P.S.S.G.A.P.P.P.S.[am]}$$$$V2.0) | 9.72 |
| CC[C@H](C)[C@H](NC(=O)[C@H](CC(C)C)NC(=O)[C@H](Cc1c[nH]c2ccccc12)NC(=O)[C@H](CCC(=O)O)NC(=O)[C@@H](NC(=O)[C@H](Cc1ccccc1)NC(=O)[C@H](CCC(=O)O)NC(=O)[C@H](CS)NC(=O)[C@H](C)NC(=O)[C@H](C)NC(=O)[C@H](CCC(=O)O)NC(=O)[C@H](CCC(=O)O)NC(=O)[C@H](CCC(=O)O)NC(=O)[C@H](CC(C)C)NC(=O)[C@H](CS)NC(=O)[C@H](CCC(=O)O)NC(=O)[C@@H](NC(=O)[C@@H](NC(=O)[C@H](CC(=O)O)NC(=O)[C@H](CC(N)=O)NC(=O)[C@@H](NC(=O)[C@H](Cc1ccc(O)cc1)NC(=O)[C@@H](NC(=O)CNC(=O)[C@H](CCC(=O)O)NC(=O)C(C)(C)NC(=O)[C@@H](N)Cc1c[nH]cn1)[C@@H](C)O)[C@@H](C)O)C(C)C)[C@@H](C)O)[C@@H](C)CC)C(=O)N[C@@H](CCCCN)C(=O)NCC(=O)N[C@@H](CCCCN)C(N)=O (HELM PEPTIDE1{H.[Aib].E.G.T.Y.T.N.D.V.T.E.C.L.E.E.E.A.A.C.E.F.I.E.W.L.I.K.G.K.[am]}$$$$V2.0) | 9.31 |
| CC[C@H](C)[C@H](NC(=O)[C@H](CC(C)C)NC(=O)[C@H](Cc1c[nH]c2ccccc12)NC(=O)[C@H](CCC(=O)O)NC(=O)[C@@H](NC(=O)[C@H](CS)NC(=O)[C@H](CCC(=O)O)NC(=O)[C@H](CCCCN)NC(=O)[C@H](C)NC(=O)[C@H](C)NC(=O)[C@H](CCC(=O)O)NC(=O)[C@H](CCC(=O)O)NC(=O)[C@H](CS)NC(=O)[C@H](CC(C)C)NC(=O)[C@H](Cc1ccc(O)cc1)NC(=O)[C@H](CCC(=O)O)NC(=O)[C@@H](NC(=O)[C@@H](NC(=O)[C@H](CC(=O)O)NC(=O)[C@H](CC(N)=O)NC(=O)[C@@H](NC(=O)[C@H](Cc1ccc(O)cc1)NC(=O)[C@@H](NC(=O)CNC(=O)[C@H](CCC(=O)O)NC(=O)C(C)(C)NC(=O)[C@@H](N)Cc1c[nH]cn1)[C@@H](C)O)[C@@H](C)O)C(C)C)[C@@H](C)O)[C@@H](C)CC)C(=O)N[C@@H](CCCCN)C(=O)NCC(=O)N[C@@H](CCCCN)C(=O)N1CCC[C@H]1C(=O)N[C@@H](CO)C(=O)N[C@@H](CO)C(=O)NCC(=O)N[C@@H](C)C(=O)N1CCC[C@H]1C(=O)N1CCC[C@H]1C(=O)N1CCC[C@H]1C(=O)N[C@@H](CO)C(N)=O (HELM PEPTIDE1{H.[Aib].E.G.T.Y.T.N.D.V.T.E.Y.L.C.E.E.A.A.K.E.C.I.E.W.L.I.K.G.K.P.S.S.G.A.P.P.P.S.[am]}$$$$V2.0) | 9.66 |
| CC[C@H](C)[C@H](NC(=O)[C@H](CC(C)C)NC(=O)[C@H](Cc1c[nH]c2ccccc12)NC(=O)[C@H](CCC(=O)O)NC(=O)[C@@H](NC(=O)[C@H](CS)NC(=O)[C@H](CCC(=O)O)NC(=O)[C@H](CCCCN)NC(=O)[C@H](C)NC(=O)[C@H](C)NC(=O)[C@H](CCC(=O)O)NC(=O)[C@H](CCC(=O)O)NC(=O)[C@H](CS)NC(=O)[C@H](CC(C)C)NC(=O)[C@H](Cc1ccc(O)cc1)NC(=O)[C@H](CCC(=O)O)NC(=O)[C@@H](NC(=O)[C@@H](NC(=O)[C@H](CC(=O)O)NC(=O)[C@H](CC(N)=O)NC(=O)[C@@H](NC(=O)[C@H](Cc1ccc(O)cc1)NC(=O)[C@@H](NC(=O)CNC(=O)[C@H](CCC(=O)O)NC(=O)C(C)(C)NC(=O)[C@@H](N)Cc1c[nH]cn1)[C@@H](C)O)[C@@H](C)O)C(C)C)[C@@H](C)O)[C@@H](C)CC)C(=O)N[C@@H](CCCCN)C(=O)NCC(=O)N[C@@H](CCCCN)C(N)=O (HELM PEPTIDE1{H.[Aib].E.G.T.Y.T.N.D.V.T.E.Y.L.C.E.E.A.A.K.E.C.I.E.W.L.I.K.G.K.[am]}$$$$V2.0) | 9.23 |
